What was measured:
Hepatotoxicity [1] = assay: Literature-mined compound from Fourches et al multi-species drug-induced liver injury (DILI) dataset, effect in humans; conditions: human
Hepatotoxicity [2] = assay: Literature-mined compound from Fourches et al multi-species drug-induced liver injury (DILI) dataset, effect in non-rodents
Hepatotoxicity [3] = assay: Literature-mined compound from Fourches et al multi-species drug-induced liver injury (DILI) dataset, effect in rodents; conditions: rodentia

| Compound | Hepatotoxicity (Hepatotoxicity [1]) | Hepatotoxicity (Hepatotoxicity [2]) | Hepatotoxicity (Hepatotoxicity [3]) | Hepatotoxicity (Hepatotoxicity [1]; Liver) | Hepatotoxicity (Hepatotoxicity [2]; Liver) | Hepatotoxicity (Hepatotoxicity [3]; Liver) |
| --- | --- | --- | --- | --- | --- | --- |
| CCCNC(=O)NS(=O)(=O)c1ccc(Cl)cc1 [CHLORPROPAMIDE] | drug-induced liver injury reported | no drug-induced liver injury reported | drug-induced liver injury reported | – | – | – |
| CN(C)[C@@H]1C(O)=C(C(N)=O)C(=O)[C@@]2(O)C(O)=C3C(=O)c4c(O)ccc(Cl)c4[C@@](C)(O)[C@H]3C[C@@H]12 [CHLORTETRACYCLINE] | no drug-induced liver injury reported | drug-induced liver injury reported | drug-induced liver injury reported | – | – | – |
| C=C1CC[C@H](O)C/C1=C/C=C1\CCC[C@]2(C)[C@@H]([C@H](C)CCCC(C)C)CC[C@@H]12 [CHOLECALCIFEROL] | no drug-induced liver injury reported | no drug-induced liver injury reported | drug-induced liver injury reported | – | – | – |
| Nc1ccn(C[C@@H](CO)OCP(=O)(O)O)c(=O)n1.O.O [CIDOFOVIR] | drug-induced liver injury reported | no drug-induced liver injury reported | no drug-induced liver injury reported | – | – | – |
| CN/C(=N/CCSCc1nc[nH]c1C)NC#N [CIMETIDINE] | – | – | – | drug-induced liver injury reported | drug-induced liver injury reported | drug-induced liver injury reported |
| O=C(O)c1cc(-c2ccccc2)nc2ccccc12 [CINCHOPHEN] | drug-induced liver injury reported | drug-induced liver injury reported | no drug-induced liver injury reported | – | – | – |
| CCn1nc(C(=O)O)c(=O)c2cc3c(cc21)OCO3 [CINOXACIN] | drug-induced liver injury reported | no drug-induced liver injury reported | no drug-induced liver injury reported | – | – | – |
| CC(C)(Oc1ccc(C2CC2(Cl)Cl)cc1)C(=O)O (centres undefined) [CIPROFIBRATE] | drug-induced liver injury reported | drug-induced liver injury reported | drug-induced liver injury reported | – | – | – |
| O=C(O)c1cn(C2CC2)c2cc(N3CCNCC3)c(F)cc2c1=O [CIPROFLOXACIN] | – | – | – | drug-induced liver injury reported | no drug-induced liver injury reported | drug-induced liver injury reported |
| COc1cc(N)c(Cl)cc1C(=O)NC1CCN(CCCOc2ccc(F)cc2)CC1OC (centres undefined) [CISAPRIDE] | drug-induced liver injury reported | no drug-induced liver injury reported | no drug-induced liver injury reported | – | – | – |
| CN(C)CCCC1(c2ccc(F)cc2)OCc2cc(C#N)ccc21 (centres undefined) [CITALOPRAM] | no drug-induced liver injury reported | no drug-induced liver injury reported | drug-induced liver injury reported | – | – | – |
| O=C(O)CC(O)(CC(=O)O)C(=O)O [CITRIC ACID] | no drug-induced liver injury reported | no drug-induced liver injury reported | drug-induced liver injury reported | – | – | – |
| Nc1nc(Cl)nc2c1ncn2[C@H]1C[C@H](O)[C@@H](CO)O1 [CLADRIBINE] | drug-induced liver injury reported | no drug-induced liver injury reported | no drug-induced liver injury reported | – | – | – |
| CC[C@H]1OC(=O)[C@H](C)[C@@H](O[C@H]2C[C@@](C)(OC)[C@@H](O)[C@H](C)O2)[C@H](C)[C@@H](O[C@@H]2O[C@H](C)C[C@H](N(C)C)[C@H]2O)[C@](C)(OC)C[C@@H](C)C(=O)[C@H](C)[C@@H](O)[C@]1(C)O [CLARITHROMYCIN] | drug-induced liver injury reported | no drug-induced liver injury reported | drug-induced liver injury reported | – | – | – |
| O=C(O)[C@H]1/C(=C/CO)O[C@@H]2CC(=O)N21 [CLAVULANIC ACID] | drug-induced liver injury reported | no drug-induced liver injury reported | no drug-induced liver injury reported | – | – | – |
| CCC[C@@H]1C[C@@H](C(=O)N[C@@H]([C@H]2O[C@H](SC)[C@H](O)[C@@H](O)[C@H]2O)[C@H](C)Cl)N(C)C1 [CLINDAMYCIN] | drug-induced liver injury reported | no drug-induced liver injury reported | no drug-induced liver injury reported | – | – | – |
| Oc1c(I)cc(Cl)c2cccnc12 [CLIOQUINOL] | no drug-induced liver injury reported | no drug-induced liver injury reported | drug-induced liver injury reported | – | – | – |
| CN1C(=O)CC(=O)N(c2ccccc2)c2cc(Cl)ccc21 [CLOBAZAM] | drug-induced liver injury reported | no drug-induced liver injury reported | no drug-induced liver injury reported | – | – | – |
| O=P(O)(O)C(Cl)(Cl)P(=O)(O)O [CLODRONIC ACID] | no drug-induced liver injury reported | no drug-induced liver injury reported | drug-induced liver injury reported | – | – | – |

| Compound | Hepatotoxicity (Hepatotoxicity [1]) | Hepatotoxicity (Hepatotoxicity [2]) | Hepatotoxicity (Hepatotoxicity [3]) | Hepatotoxicity (Hepatotoxicity [1]; Liver) | Hepatotoxicity (Hepatotoxicity [2]; Liver) | Hepatotoxicity (Hepatotoxicity [3]; Liver) |
| --- | --- | --- | --- | --- | --- | --- |
| Nc1nc(Cl)nc2c1ncn2[C@@H]1O[C@H](CO)[C@@H](O)[C@@H]1F [CLOFARABINE] | drug-induced liver injury reported | no drug-induced liver injury reported | no drug-induced liver injury reported | – | – | – |
| CC(C)/N=c1\cc2n(-c3ccc(Cl)cc3)c3ccccc3nc-2cc1Nc1ccc(Cl)cc1 [CLOFAZIMINE] | drug-induced liver injury reported | no drug-induced liver injury reported | no drug-induced liver injury reported | – | – | – |
| CCOC(=O)C(C)(C)Oc1ccc(Cl)cc1 [CLOFIBRATE] | drug-induced liver injury reported | drug-induced liver injury reported | drug-induced liver injury reported | – | – | – |
| Cc1ncsc1CCCl [CLOMETHIAZOLE] | drug-induced liver injury reported | no drug-induced liver injury reported | drug-induced liver injury reported | – | – | – |
| Clc1cccc(Cl)c1N=C1NCCN1 [CLONIDINE] | – | – | – | drug-induced liver injury reported | no drug-induced liver injury reported | drug-induced liver injury reported |
| COC(=O)[C@H](c1ccccc1Cl)N1CCc2sccc2C1 [CLOPIDOGREL] | – | – | – | drug-induced liver injury reported | no drug-induced liver injury reported | drug-induced liver injury reported |
| CCc1cc2c(s1)N(C)C(=O)CN=C2c1ccccc1Cl [CLOTIAZEPAM] | drug-induced liver injury reported | no drug-induced liver injury reported | no drug-induced liver injury reported | – | – | – |
| Clc1ccccc1C(c1ccccc1)(c1ccccc1)n1ccnc1 [CLOTRIMAZOLE] | no drug-induced liver injury reported | no drug-induced liver injury reported | drug-induced liver injury reported | – | – | – |
| CN1CCN(C2=Nc3cc(Cl)ccc3Nc3ccccc32)CC1 [CLOZAPINE] | drug-induced liver injury reported | no drug-induced liver injury reported | no drug-induced liver injury reported | – | – | – |
| COC(=O)[C@H]1[C@@H](OC(=O)c2ccccc2)C[C@@H]2CC[C@H]1N2C [COCAINE] | drug-induced liver injury reported | no drug-induced liver injury reported | drug-induced liver injury reported | – | – | – |
| COc1ccc2c3c1O[C@H]1[C@@H](O)C=C[C@H]4[C@@H](C2)N(C)CC[C@@]341 [CODEINE] | – | – | – | drug-induced liver injury reported | no drug-induced liver injury reported | drug-induced liver injury reported |
| COc1cc2c(c(OC)c1OC)-c1ccc(OC)c(=O)cc1[C@@H](NC(C)=O)CC2 [COLCHICINE] | drug-induced liver injury reported | no drug-induced liver injury reported | drug-induced liver injury reported | – | – | – |
| Nc1ncnc2c1ncn2[C@@H]1O[C@H](CO)C[C@H]1O [CORDYCEPIN] | no drug-induced liver injury reported | no drug-induced liver injury reported | drug-induced liver injury reported | – | – | – |
| CC(=O)OCC(=O)[C@@]1(O)CC[C@H]2[C@@H]3CCC4=CC(=O)CC[C@]4(C)[C@H]3C(=O)C[C@@]21C [CORTISONE ACETATE] | no drug-induced liver injury reported | no drug-induced liver injury reported | drug-induced liver injury reported | – | – | – |
| CC1=C(CC(=O)NCc2ccccc2)c2cc(F)ccc2/C1=C\c1ccncc1.Cl [CP-461] | drug-induced liver injury reported | no drug-induced liver injury reported | no drug-induced liver injury reported | – | – | – |
| CN(CC(=O)O)C(=N)N [CREATINE] | no drug-induced liver injury reported | no drug-induced liver injury reported | drug-induced liver injury reported | – | – | – |
| COc1cc(/C=C/C(=O)CC(=O)/C=C/c2ccc(O)c(OC)c2)ccc1O [CURCUMIN] | drug-induced liver injury reported | no drug-induced liver injury reported | drug-induced liver injury reported | – | – | – |
| CC1CC(OC(=O)C(O)c2ccccc2)CC(C)(C)C1 (centres undefined) [CYCLANDELATE] | no drug-induced liver injury reported | no drug-induced liver injury reported | drug-induced liver injury reported | – | – | – |
| CCC1(C2=CCCCC2)C(=O)NC(=O)NC1=O [CYCLOBARBITAL] | no drug-induced liver injury reported | no drug-induced liver injury reported | drug-induced liver injury reported | – | – | – |

From ChEMBL document CHEMBL1697731, “Cheminformatics analysis of assertions mined from literature that describe drug-induced liver injury in different species” (Chem Res Toxicol, 2010)
